Measurements taken from ChEMBL document CHEMBL1828497, “Novel indole and azaindole (pyrrolopyridine) cannabinoid (CB) receptor agonists: design, synthesis, structure-activity relationships, physicochemical properties and biological activity” (Eur J Med Chem, 2011).
≈ marks a conversion by molar mass, not a printed value.

species: Homo sapiens; test: Selectivity ratio of Ki for human CB2 receptor to Ki for human CB1 receptor; conditions: not given

SMILES | Ratio Ki
COCCn1cc(C(=O)Nc2cccc3ccccc23)c2ccccc21 | < 0.3
COCCn1cc(C(=O)c2ccccc2-c2ccccc2)c2ccccc21 | 3
COCCn1cc(C(=O)c2cccc3ccccc23)c2cccnc21 | 0.4
CCCCCn1cc(C(=O)Nc2ccc3ccccc3c2)c2ccccc21 | 10
COCCn1cc(C(=O)c2cccc(-c3ccccc3)c2)c2ccccc21 | > 4
CCCCCn1cc(C(=O)c2cccc(-c3ccccc3)c2)c2ccccc21 | 9
CCCCCn1cc(C(=O)c2cccc3ccccc23)c2ccccc21 | 3
CCCCCn1cc(C(=O)c2ccccc2-c2ccccc2)c2ccccc21 | 1
CCCCCn1cc(C(=O)c2cccc3ccccc23)c2ccncc21 | 3

test system: not listed separately; test: Lipophilicity, log D of the compound at pH 7.4; conditions: buffer

SMILES | logD
COCCn1cc(C(=O)Nc2cccc3ccccc23)c2ccccc21 | 2.94
COCCn1cc(C(=O)c2ccccc2-c2ccccc2)c2ccccc21 | 3.31
COCCn1cc(C(=O)c2cccc3ccccc23)c2cccnc21 | 3.57
CCCCCn1cc(C(=O)Nc2ccc3ccccc3c2)c2ccccc21 | > 5
COCCn1cc(C(=O)c2cccc(-c3ccccc3)c2)c2ccccc21 | 4.4
CCCCCn1cc(C(=O)c2cccc(-c3ccccc3)c2)c2ccccc21 | > 5
CCCCCn1cc(C(=O)c2cccc3ccccc23)c2ccccc21 | > 5
CCCCCn1cc(C(=O)c2ccccc2-c2ccccc2)c2ccccc21 | > 5
CCCCCn1cc(C(=O)c2cccc3ccccc23)c2ccncc21 | 4.72

test system: not listed separately; test: physchem; conditions: 0.01 M phosphate buffered saline, pH 7.4

SMILES | solubility kinetic [µM]
COCCn1cc(C(=O)Nc2cccc3ccccc23)c2ccccc21 | 30 (≈ 10.3 µg/mL)
COCCn1cc(C(=O)c2cccc3ccccc23)c2cccnc21 | 10 (≈ 3.3 µg/mL)
CCCCCn1cc(C(=O)c2cccc3ccccc23)c2ccncc21 | 3 (≈ 1.03 µg/mL)

test system: not listed separately; test: physchem; conditions: phosphate buffer, pH 4
Description: Thermodynamic solubility of the compound in phosphate buffer at pH 4 after 24 hrs by HPLC analysis

SMILES | solubility thermodynamic at 24 h [µM]
COCCn1cc(C(=O)Nc2cccc3ccccc23)c2ccccc21 | 3 (≈ 1.03 µg/mL)
COCCn1cc(C(=O)c2ccccc2-c2ccccc2)c2ccccc21 | < 1
COCCn1cc(C(=O)c2cccc3ccccc23)c2cccnc21 | 3 (≈ 0.991 µg/mL)
CCCCCn1cc(C(=O)Nc2ccc3ccccc3c2)c2ccccc21 | < 1
COCCn1cc(C(=O)c2cccc(-c3ccccc3)c2)c2ccccc21 | < 1
CCCCCn1cc(C(=O)c2cccc3ccccc23)c2ccccc21 | < 1

test system: not listed separately; test: physchem; conditions: 0.01 M phosphate buffered saline, pH 7.4; remark: another data set of the same source

SMILES | solubility kinetic [µM]
COCCn1cc(C(=O)Nc2cccc3ccccc23)c2ccccc21 | 100 (≈ 34.4 µg/mL)
COCCn1cc(C(=O)c2cccc3ccccc23)c2cccnc21 | 65 (≈ 21.5 µg/mL)
CCCCCn1cc(C(=O)c2cccc3ccccc23)c2ccncc21 | 10 (≈ 3.42 µg/mL)

test system: not listed separately; test: Dissociation constant, pKa of the compound by fast UV-metric method; type: physicochemical; conditions: not given

SMILES | pKa
COCCn1cc(C(=O)c2cccc3ccccc23)c2cccnc21 | < 2
CCCCCn1cc(C(=O)c2cccc3ccccc23)c2ccncc21 | 5.83

target: T1, Cannabinoid receptor 1 (Homo sapiens, UniProt P21554); test: Displacement of [3H]-CP55940 from human CB1 receptor expressed in CHO cells by liquid scintillation counting; type: cell-based; conditions: not given
T1 sequence (P21554 whole entry): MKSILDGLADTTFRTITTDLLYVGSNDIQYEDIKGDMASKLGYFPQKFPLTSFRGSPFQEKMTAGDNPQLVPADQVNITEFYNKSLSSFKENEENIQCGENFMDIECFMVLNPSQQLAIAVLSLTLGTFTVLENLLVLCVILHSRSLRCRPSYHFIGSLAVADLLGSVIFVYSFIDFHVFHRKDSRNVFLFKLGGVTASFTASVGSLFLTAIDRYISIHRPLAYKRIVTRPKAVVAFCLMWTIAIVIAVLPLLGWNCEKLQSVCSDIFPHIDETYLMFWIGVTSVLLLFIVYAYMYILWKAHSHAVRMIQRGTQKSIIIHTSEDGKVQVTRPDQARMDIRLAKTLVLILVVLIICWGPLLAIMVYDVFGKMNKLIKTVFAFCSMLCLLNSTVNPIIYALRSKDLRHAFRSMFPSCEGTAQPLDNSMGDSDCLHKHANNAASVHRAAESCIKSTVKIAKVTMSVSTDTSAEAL

SMILES | Ki [nM]
COCCn1cc(C(=O)Nc2cccc3ccccc23)c2ccccc21 | > 1000
COCCn1cc(C(=O)c2ccccc2-c2ccccc2)c2ccccc21 | 251
COCCn1cc(C(=O)c2cccc3ccccc23)c2cccnc21 | 501
CCCCCn1cc(C(=O)Nc2ccc3ccccc3c2)c2ccccc21 | 63.1
COCCn1cc(C(=O)c2cccc(-c3ccccc3)c2)c2ccccc21 | 251
CCCCCn1cc(C(=O)c2cccc(-c3ccccc3)c2)c2ccccc21 | 7.94
CCCCCn1cc(C(=O)c2cccc3ccccc23)c2ccccc21 | 2
CCCCCn1cc(C(=O)c2ccccc2-c2ccccc2)c2ccccc21 | 6.31
CCCCCn1cc(C(=O)c2cccc3ccccc23)c2ccncc21 | 158

target: T1, Cannabinoid receptor 1; test: Agonist activity at human CB1 receptor expressed in CHO cells assessed as stimulation of [3H]-arachidonic acid release; type: functional, cell-based; conditions: not given

SMILES | EC50 [nM]
COCCn1cc(C(=O)c2cccc3ccccc23)c2cccnc21 | > 1000
CCCCCn1cc(C(=O)Nc2ccc3ccccc3c2)c2ccccc21 | > 1000
CCCCCn1cc(C(=O)c2cccc3ccccc23)c2ccccc21 | 5.01
CCCCCn1cc(C(=O)c2cccc3ccccc23)c2ccncc21 | 100

test system: not listed separately; test: physchem; conditions: phosphate buffer, pH 7.4
Description: Thermodynamic solubility of the compound in phosphate buffer at pH 7.4 after 24 hrs by HPLC analysis

SMILES | solubility thermodynamic at 24 h [µM]
COCCn1cc(C(=O)Nc2cccc3ccccc23)c2ccccc21 | 3 (≈ 1.03 µg/mL)
COCCn1cc(C(=O)c2ccccc2-c2ccccc2)c2ccccc21 | < 1
COCCn1cc(C(=O)c2cccc3ccccc23)c2cccnc21 | 3 (≈ 0.991 µg/mL)
CCCCCn1cc(C(=O)Nc2ccc3ccccc3c2)c2ccccc21 | < 1
COCCn1cc(C(=O)c2cccc(-c3ccccc3)c2)c2ccccc21 | < 1
CCCCCn1cc(C(=O)c2cccc(-c3ccccc3)c2)c2ccccc21 | < 1
CCCCCn1cc(C(=O)c2cccc3ccccc23)c2ccccc21 | < 1
CCCCCn1cc(C(=O)c2ccccc2-c2ccccc2)c2ccccc21 | < 1
CCCCCn1cc(C(=O)c2cccc3ccccc23)c2ccncc21 | 4 (≈ 1.37 µg/mL)

target: Cannabinoid receptor 1 (Rattus norvegicus) (UniProt P20272); test: Activation of CB1 receptor in Wistar rat prelimbic prefrontal cortex assessed as reduction of field excitatory postsynaptic potential amplitude after 20 mins relative to baseline; type: tissue-based; conditions: not given
Sequence (P20272 whole entry): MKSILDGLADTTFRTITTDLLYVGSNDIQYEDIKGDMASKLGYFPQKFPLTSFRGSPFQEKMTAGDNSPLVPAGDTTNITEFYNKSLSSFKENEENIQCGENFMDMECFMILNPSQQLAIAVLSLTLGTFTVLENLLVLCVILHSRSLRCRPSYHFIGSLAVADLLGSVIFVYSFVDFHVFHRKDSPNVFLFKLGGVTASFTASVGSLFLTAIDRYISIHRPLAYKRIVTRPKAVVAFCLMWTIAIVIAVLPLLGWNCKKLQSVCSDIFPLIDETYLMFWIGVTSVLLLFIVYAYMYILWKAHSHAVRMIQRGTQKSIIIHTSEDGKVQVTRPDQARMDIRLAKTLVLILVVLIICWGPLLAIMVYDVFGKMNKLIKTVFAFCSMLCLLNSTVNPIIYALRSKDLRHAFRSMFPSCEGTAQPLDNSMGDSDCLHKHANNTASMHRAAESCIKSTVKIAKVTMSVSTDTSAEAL

SMILES | Emax [%]
CCCCCn1cc(C(=O)c2cccc3ccccc23)c2ccccc21 | 73.5

target: Cannabinoid receptor 1 (Rattus norvegicus, UniProt P20272); test: (§1) Activation of CB1 receptor in Wistar rat prelimbic prefrontal cortex assessed as reduction of field excitatory postsynaptic potential amplitude after 20 mins; type: tissue-based; conditions: not given
Sequence (P20272 whole entry): as above

SMILES | IC50 [nM]
CCCCCn1cc(C(=O)c2cccc3ccccc23)c2ccccc21 | 280

target: Cannabinoid receptor 1 (Rattus norvegicus) (UniProt P20272); test: as §1; type: tissue-based; conditions: not given

SMILES | inhibition
CCCCCn1cc(C(=O)c2cccc3ccccc23)c2ccccc21 | Dose-dependent effect

test system: not listed separately; test: Apparent permeability from apical to basolateral side in human Caco2 cells by LC-MS/MS analysis; conditions: Caco-2

SMILES | Papp A→B [×10⁻⁶ cm/s]
COCCn1cc(C(=O)Nc2cccc3ccccc23)c2ccccc21 | 27
COCCn1cc(C(=O)c2cccc3ccccc23)c2cccnc21 | 26
CCCCCn1cc(C(=O)c2cccc3ccccc23)c2ccncc21 | 13

target: T2, Cannabinoid receptor 2 (Homo sapiens, UniProt P34972); test: Agonist activity at human CB2 receptor expressed in CHO cells assessed as inhibition of forskolin-stimulated cAMP accumulation after 20 mins; type: functional, cell-based; conditions: not given
T2 sequence (P34972 whole entry): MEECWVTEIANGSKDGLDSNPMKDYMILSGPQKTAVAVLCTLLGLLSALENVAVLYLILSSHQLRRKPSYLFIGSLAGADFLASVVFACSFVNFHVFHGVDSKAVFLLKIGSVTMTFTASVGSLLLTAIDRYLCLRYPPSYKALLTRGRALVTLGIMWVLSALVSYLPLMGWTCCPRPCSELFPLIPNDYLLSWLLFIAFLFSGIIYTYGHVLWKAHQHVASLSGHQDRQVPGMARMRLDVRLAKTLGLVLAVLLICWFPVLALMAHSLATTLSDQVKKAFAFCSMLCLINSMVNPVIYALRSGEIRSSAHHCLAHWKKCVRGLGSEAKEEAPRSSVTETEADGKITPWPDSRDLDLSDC

SMILES | EC50 [nM]
COCCn1cc(C(=O)Nc2cccc3ccccc23)c2ccccc21 | 6.31
COCCn1cc(C(=O)c2cccc3ccccc23)c2cccnc21 | > 1000
CCCCCn1cc(C(=O)Nc2ccc3ccccc3c2)c2ccccc21 | 5010
CCCCCn1cc(C(=O)c2cccc3ccccc23)c2ccccc21 | 5.01

target: T2, Cannabinoid receptor 2; test: Displacement of [3H]-CP55940 from human CB2 receptor expressed in CHO cells by liquid scintillation counting; type: cell-based; conditions: not given

SMILES | Ki [nM]
COCCn1cc(C(=O)Nc2cccc3ccccc23)c2ccccc21 | 251
COCCn1cc(C(=O)c2ccccc2-c2ccccc2)c2ccccc21 | 631
COCCn1cc(C(=O)c2cccc3ccccc23)c2cccnc21 | 200
CCCCCn1cc(C(=O)Nc2ccc3ccccc3c2)c2ccccc21 | 631
COCCn1cc(C(=O)c2cccc(-c3ccccc3)c2)c2ccccc21 | > 1000
CCCCCn1cc(C(=O)c2cccc(-c3ccccc3)c2)c2ccccc21 | 63.1
CCCCCn1cc(C(=O)c2cccc3ccccc23)c2ccccc21 | 6.31
CCCCCn1cc(C(=O)c2ccccc2-c2ccccc2)c2ccccc21 | 7.94
CCCCCn1cc(C(=O)c2cccc3ccccc23)c2ccncc21 | 501
